Like-named read-outs stand apart in the source and are kept apart here.
How the values were obtained:
[1] = tested on: Methylococcus capsulatus (CRL Ml, NRRL B-11,219); experiment: Effect of inhibitors on epoxidation of propylene and hydroxylation of methane, cell-containing enzyme preparation; assay type: cell-based; details: Methylococcus capsulatus
[2] = tested on: Methylosinus trichosporium OB3b (NRRL B-11,196); experiment: as above; assay type: cell-based
[3] = tested on: Methylobacterium organophilum (CRL 26, NRRL B-11,222); experiment: as above; assay type: cell-based
[4] = tested on: P(40) particulate fraction of Methylosinus sp. (CRL-15, NRRL B-11,202); experiment: Effect of inhibitors on propylene epoxidation and methane hydroxylation by P(40) fraction; assay type: biochemical; details: inhibitor 10^-3 M
Protocol: The oxidation of methane and propylene by particulate [(P)40 and(P)80] fractions and soluble [S(80)] fraction was measured at 30° C. by estimating the production of methanol and propylene oxide, respectively. The reaction mixtures contained in 1.0 ml: 150 mM potassium phosphate buffer, pH 7.0 containing 5 mM MgCl2, 0.6 ml; 10 μmoles NADH, and cellular fraction.
Reaction mixtures were contained in 10 ml vials at 4° C. Vials were sealed with rubber caps. The gaseous phase in the vials was removed using vacuum and then was replaced with a gas mixture of methane or propylene and oxygen at a 1:1, v/v ratio. Oxidation of other gaseous n-alkanes and n-alkenes was examined as described above. For liquid substrates, 10 μl of substrate was used directly. Vials were then incubated at 30° C. on a rotary shaker at 200 RPM.
It has been reported that the oxidation of methane by cell suspensions of methane-utilizing bacteria was inhibited by various metal-binding or metal-chelating agents (Patel et al., J. Bacteriol. 126: 1017-1019 (1976)). […] (CRL-15, NRRL B-11,202) was examined.

[5] = tested on: methanol-grown Methylococcus capsulatus CRL M1 (NRRL B-11,219); experiment: Effect of metal-chelating agents and other inhibitors on production of 2-butanone by cell suspensions; assay type: cell-based
[6] = tested on: cell-free particulate fractions derived from the methylotrophic microorganisms; experiment: Conversion of C3-C6 n-alkanes to sec. alcohols by cell-free particulate fractions: inhibitors and electron donors; assay type: biochemical
Description: The conditions for preparing the cell suspensions or the cell-free particulate fractions from methane-grown methylotroph microorganisms is the same as described above. […] Tables XXV and XXVI show the conversion of C3 -C6 n-alkanes to the corresponding secondary alcohols using cell suspensions and cell-free particulate fractions, respectively, of methane-grown methylotroph microorganisms.

[7] = tested on: cell suspensions of C1 -utilizers; experiment: Optimal conditions and inhibition of 2-butanone production from 2-butanol by cell suspensions; assay type: cell-based
Description: The following summarizes tests conducted on the optimal conditions for the production of methyl ketones from C3 -C6 sec. alcohols.

[8] = tested on: secondary alcohol dehydrogenase (SADH); experiment: Purified secondary alcohol dehydrogenase activity (formation of reduced NAD); assay type: biochemical, Pseudomonas sp. ATCC 21439
Protocol: Secondary alcohol dehydrogenase (SADH) from an obligate methanol utilizer, Pseudomonas sp. ATCC 21439 was purified as follows. […] 0.05 M sodium phosphate buffer, pH 7.0 with 0.5 mM dithiothretol (buffer A) and were disrupted sonically (5×1 min.). The crude extract was separated by centrifugation. The crude extract was heat-treated at 50° C. in a water bath for 10 minutes. The resulting precipitate was removed by centrifugation. To the supernatant solution, 25 ml of protamine sulfate solution (2% solution in 0.1 M Tris base) was added dropwise with continuous stirring. After standing for 30 minutes, the extract was centrifuged. The supernatant solution was fractionated with solid ammonium sulfate. The material precipitating between 30 and 60% saturation was collected and was dialized overnight against buffer A. The The dialized material was applied to a DEAE-cellulose column (3 cm by 35 cm) that had been equilibrated with buffer A. The secondary alcohol dehydrogenase activity was eluted in the void volume. This DEAE-cellulose eluate was concentrated by ammonium sulfate fractionation. Material precipitating between 30 and 50% ammonium sulfate saturation was collected by centrifugation and dialyzed overnight against A. This fraction was further washed and filtered through an Amicon unit with XM 50 membrane. The concentrated fraction (6 ml) inside the Amicon unit was applied to an Affi-Gel Blue column (0.8 cm×18 cm) which had been equilibrated with buffer A for affinity chromatography. The column was washed overnight with buffer A (0.18 ml./min.) and then was eluted with buffer A containing 5 mM NAD. Each 1 ml. fraction was collected.
The purified secondary alcohol dehydrogenase enzyme (SADH) may be used directly for converting C3 -C6 secondary alcohols to the corresponding methyl ketones by the procedures described above; however, a source of NAD^+ must be added to the reaction medium. One can determine the NAD-linked secondary alcohol dehydrogenase activity with a fluorescence spectrophotometer (Perkin Elmer, Model MPF 44A) by following the formation of reduced NAD (Ex 340 nm, Em 460 nm). The assay system (3 ml.) will typically contain: sodium phosphate buffer pH 7.0, 150 μmol; NAD 1.0 μmol; a given amount of enzyme preparation; and 20 μmol secondary alcohol. The reaction is started by the addition of secondary alcohol. One unit of SADH enzyme activity represents the reduction of one nmole NAD per minute.
The effect of metal-chelating agents and thioreagents on the activity of the purified SADH enzyme were studied. […] The possibility of ethanol or n-propanol as an inhibitor was studied.

[9] = tested on: Methylobacter vinelandii (CRL M5Y NRRL B-11,218); experiment: Microbiological oxidation of cyclic hydrocarbons by methane-grown washed cells; assay type: cell-based
Description: Methylobacter vinelandii (CRL M5Y NRRL B-11,218) was aerobically grown in a methane-containing nutrient medium in the manner described in Example 1 and the methane-grown washed cells were contacted under aerobic conditions with cyclohexane, benzene and toluene.

[10] = tested on: secondary alcohol dehydrogenase; experiment: Purified yeast secondary alcohol dehydrogenase: substrates, electron acceptors, inhibitors, stoichiometry; assay type: biochemical, Pichia sp. NRRL Y-11,328
Protocol: Large scale cultures of Pichia sp. NRRL Y-11,328 were grown with aeration at 30° C. in a 14-liter New Brunswick f fermentor in a mineral salt medium containing methanol (0.4%, v/v) as the sole carbon source. The cells (200 g., wet weight) were suspended in […] sodium phosphate buffer, pH 7.0, containing 1 mM dithiothreitol (buffer A), and crude extracts were prepared as described previously. To the crude extracts, 18 ml. of protamine sulfate solution [2% solution in 0.1 M tris (hydroxymethyl) aminomethane (tris) base] was added dropwise with continuous stirring. After standing for 30 min., the extracts were centrifuged at 20,000×g. for 60 min. The supernatant solution was fractionated with solid ammonium sulfate. Extracts were brought to 50% of saturation with respect to ammonium sulfate by addition of 313 g. of the salt per liter of extract. Precipitated proteins was removed by centrifugation, and 137 g. of ammonium sulfate was added per liter of the supernatant liquid to bring it to 70% of saturation. Material precipitating between 50 and 70% of saturation was collected by centrifugation and dissolved in buffer A. This preparation was dialyzed overnight against buffer A, and the dialyzed material was applied to a DEAE-cellulose column (5×40 cm) that had been equilibrated with buffer A. The sample was washed with 200 ml. of buffer A and eluted with 2 liters of buffer A that contained NaCl in a linear gradient running from a concentration of 0 to 0.5 M. Fractions of 15 ml. were collected. Fractions containing secondary alcohol dehydrogenase activity were pooled and were termed DEAE-cellulose eluate. The DEAE-cellulose eluate was concentrated by ammonium sulfate fractionation.
Secondary alcohol dehydrogenase activity was measured spectrophotometrically at 340 nm with a NAD^+ as an electron acceptor. The reaction mixture, in a total 3.0 ml., contained 50 mM phosphate buffer, pH 8.0, 5μ moles NAD^+, crude extracts, and subtrate. The reactions were started by addition of 100 μl of 0.1 M substrate and the rate of NAD^+ reduction was measured. Protein concentration was determined by the method of Lowry et al.
The substrate specificity of the purified secondary alcohol dehydrogenase was examined spectrophotometrically.

[11] = tested on: cell-free extracts of strain ATCC-21439
Protocol: The reaction mixtures 3 ml (1.0 mg protein) were incubated at 30°
C. for 10 min. (exp. 1) and for 20 min. (exp. 2) in the presence of 1.0
^a Determined gas chromatographically.
^b Determined fluorescence spectrophotometrically. Endogenous
consumption of NAD was corrected.

[12] = NRRLB11, 1 h, read-out: % Inhibition, Epoxidation
[13] = NRRLB11, 1 h, read-out: % Inhibition, Hydroxylation
[14] = NRRLB11, read-out: Inhibition (%) of production of 2-butanone, 1 mM
[15] = purified SADH, each inhibitor 1 mM, measured spectrofluorometrically
[16] = NRRLB11, inhibitor 1 mM, 1 hour at 30° C., read-out: % Inhibition, Epoxidation
[17] = NRRLB11, inhibitor 1 mM, 1 hour at 30° C., read-out: % Inhibition, Hydroxylation

NC(N)=S [Thiourea]
inhibition at 1000 µM [1, 12]: 100%
inhibition at 1000 µM [1, 13]: 100%
inhibition at 1000 µM [2, 12]: 100%
inhibition at 1000 µM [2, 13]: 100%
inhibition at 1000 µM [3, 12]: 100%
inhibition at 1000 µM [3, 13]: 100%
% Inhibition, Methane-Hydroxylating Activity [4]: 98%
% Inhibition, Propylene-Epoxidizing Activity [4]: 98%
inhibition at 1000 µM [5, 14]: 0%
inhibition of the conversion of the n-alkanes to the sec. alcohols [6]: inhibited
inhibition of production of 2-butanone from 2-butanol by cell suspensions of the strains tested [7]: not inhibited

CCC(C)=O [2-butanone]
inhibition of SADH activity by the product [8]: inhibited
product inhibition of 2-butanone production ([7]; 8 μmoles 2-butanone added to viable cell suspensions): no product inhibition

c1ccc(-c2ccccn2)nc1 [α,α -Bipyridyl, α,α-bipyridyl]
inhibition at 1000 µM [1, 12]: 100%
inhibition at 1000 µM [1, 13]: 100%
inhibition at 1000 µM [2, 12]: 100%
inhibition at 1000 µM [2, 13]: 90%
% inhibition of SADH activity [8, 15]: 70%
inhibition at 1000 µM [3, 12]: 100%
inhibition at 1000 µM [3, 13]: 100%
% Inhibition, Methane-Hydroxylating Activity [4]: 99%
% Inhibition, Propylene-Epoxidizing Activity [4]: 98%
inhibition at 1000 µM [5, 14]: 75%
inhibition of the conversion of the n-alkanes to the sec. alcohols [6]: inhibited
inhibition of production of 2-butanone from 2-butanol by cell suspensions of the strains tested [7]: inhibited

c1ccccc1 [benzene]
oxidative conversion rate of cyclic hydrocarbon (cyclohexane to cyclohexanol) [9]: no oxidative conversion was detected

CCC(C)O (stereo not drawn) [2-butanol]
substrate specificity of purified SADH [8]: highest
Km ([8]; read-out: Km values): 250 µM
NAD^+ Reduced [10]: 5.9 µmol
Product formed [10]: 5.7 µmol
oxidation by the purified secondary alcohol dehydrogenase [10]: catalyzed the oxidation
2-Butanol Consumed ([11]; experiment 1, 10 min.): 260 nmol
2-Butanol Consumed ([11]; experiment 2, 20 min.): 530 nmol
NAD Consumed ([11]; experiment 2, 20 min.): 540 nmol

O=C(O)CN(CCN(CC(=O)O)CC(=O)O)CC(=O)O [EDTA]
% inhibition of SADH activity [8]: 63%
inhibition at 1000 µM ([5]; NRRLB11, read-out: Inhibition (%) of production of 2-butanone): 70%

C1CCCCC1 [Cyclohexane]
oxidative conversion rate of cyclic hydrocarbon (cyclohexane to cyclohexanol) [9]: 1.5 μmoles/2 hr./mg. protein

Cc1ccccc1 [toluene]
oxidative conversion rate of cyclic hydrocarbon (cyclohexane to cyclohexanol) [9]: no oxidative conversion was detected

c1cnc2c(c1)ccc1cccnc12 [1,10-Phenanthroline]
inhibition at 1000 µM [1, 16]: 95%
inhibition at 1000 µM [1, 17]: 95%
inhibition at 1000 µM [2, 16]: 90%
inhibition at 1000 µM [2, 17]: 92%
% inhibition of SADH activity [8, 15]: 95%
inhibition of secondary alcohol dehydrogenase activity [10]: strongly inhibited
inhibition at 1000 µM [3, 16]: 90%
inhibition at 1000 µM [3, 17]: 90%
% Inhibition, Methane-Hydroxylating Activity [4]: 90%
% Inhibition, Propylene-Epoxidizing Activity [4]: 93%
inhibition at 1000 µM [5, 14]: 95%
inhibition of the conversion of the n-alkanes to the sec. alcohols [6]: inhibited
inhibition of production of 2-butanone from 2-butanol by cell suspensions of the strains tested [7]: inhibited

— patent publication US4241184A, “Secondary alcohol dehydrogenase enzyme and use thereof” (priority 1979, dated 1980)
